Reference: the supplement of paper PMC10307832

Tests used:
Assay in all cases: relative viability (nuclei count vs DMSO), 5 days (fraction); higher = more cells survive
[1] = compound: CC1=CC(=CC=C1)NC2=NC(=CS2)C3=CC=NC=C3 + CC(C)C[C@H](NC(=O)[C@H](Cc1ccccc1)NC(=O)c1cnccn1)B(O)O [Bortezomib] (partner 0.002 µM)
Procedure, shortened: (§1)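 The day after seeding in 1536-well plates, lung cancer cell lines were treated by pin tool with a single drug, or with a fixed anchor-drug dose together with five library-drug doses (not always all listed) in √10 steps. After 5 days, a combined fix-and-stain solution (final 0.05% Triton X-100, 1% formaldehyde, 1 ug/ml Hoechst) was added. Nuclei counted on 4× images gave relative viability as treated counts over vehicle counts, reported as the median of duplicate plates.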

[2] = compound: CC1=CC(=CC=C1)NC2=NC(=CS2)C3=CC=NC=C3 + C[C@]1(O)C[C@@H](c2nc(-c3ccc4ccc(-c5ccccc5)nc4c3)c3c(N)nccn32)C1 [Linsitinib] (partner 1 µM)
Procedure, shortened: as §1

[3] = compound: Cc1ccc(NC(=O)c2ccc(CN3CCN(C)CC3)cc2)cc1Nc1nc(-c2cccnc2)cs1 [Masitinib] + CC(=O)c1c(C)c2cnc(Nc3ccc(N4CCNCC4)cn3)nc2n(C2CCCC2)c1=O [Palbociclib] (partner 0.5 µM)
Procedure, shortened: as §1

[4] = compound: Cc1ccc(NC(=O)c2ccc(CN3CCN(C)CC3)cc2)cc1Nc1nc(-c2cccnc2)cs1 [Masitinib] + Cc1nc(Nc2ncc(C(=O)Nc3c(C)cccc3Cl)s2)cc(N2CCN(CCO)CC2)n1 [Dasatinib] (partner 0.075 µM)
Procedure, shortened: as §1

Cell Line | relative viability ([1]; first compound 0.08 µM) | relative viability ([1]; first compound 0.253 µM) | relative viability ([1]; first compound 0.8 µM) | relative viability ([1]; first compound 2.53 µM) | relative viability ([1]; first compound 8 µM) | relative viability ([2]; first compound 0.08 µM) | relative viability ([2]; first compound 0.253 µM) | relative viability ([2]; first compound 0.8 µM) | relative viability ([2]; first compound 2.53 µM) | relative viability ([2]; first compound 8 µM) | relative viability ([3]; first compound 0.01 µM) | relative viability ([3]; first compound 0.03162 µM) | relative viability ([3]; first compound 0.1 µM) | relative viability ([3]; first compound 0.3162 µM) | relative viability ([3]; first compound 1 µM) | relative viability ([4]; first compound 0.01 µM) | relative viability ([4]; first compound 0.03162 µM) | relative viability ([4]; first compound 0.1 µM) | relative viability ([4]; first compound 0.3162 µM) | relative viability ([4]; first compound 1 µM)
LOU-NH91 | 0.446 | 0.457 | 0.447 | 0.461 | 0.398 | 0.82 | 0.925 | 0.903 | 0.979 | 0.769 | 0.564 | 0.47 | 0.57 | 0.562 | 0.527 | 0.557 | 0.511 | 0.54 | 0.442 | 0.546
LU99A | – | 1.09 | 1.15 | 1.06 | 1.05 | – | 0.669 | 0.532 | 0.554 | 0.538 | 0.431 | 0.417 | 0.419 | 0.428 | 0.418 | 0.583 | 0.619 | 0.557 | 0.503 | 0.503
LXF-289 | 0.952 | 0.959 | 0.988 | 0.978 | 0.823 | 0.971 | 0.933 | 0.955 | 0.986 | 0.85 | 0.553 | 0.6 | 0.655 | 0.627 | 0.595 | 0.223 | 0.206 | 0.238 | 0.202 | 0.207
NCI-H23 | 1.17 | 1.08 | 1.29 | 0.866 | 0.739 | 0.491 | 0.607 | 0.639 | 0.584 | 0.583 | 0.439 | 0.482 | 0.598 | 0.575 | 0.527 | 0.713 | 0.69 | 0.786 | 0.859 | 0.805
NCI-H322M | 1.18 | 1.29 | 1.14 | 1.22 | 1.03 | 0.832 | 0.937 | 0.791 | 1.12 | 0.771 | 0.483 | 0.487 | 0.426 | 0.531 | 0.454 | 0.259 | 0.286 | 0.236 | 0.236 | 0.253
NCI-H441 | 0.423 | 0.361 | 0.427 | 0.53 | 0.136 | 0.497 | 0.574 | 0.708 | 0.523 | 0.497 | 0.232 | 0.211 | 0.262 | 0.188 | 0.191 | 0.846 | 0.623 | 0.723 | 0.659 | 0.511
NCI-H460 | 1.03 | 1.13 | 0.945 | 0.902 | 0.843 | 0.736 | 0.95 | 0.605 | 0.862 | 0.525 | 0.0985 | 0.105 | 0.14 | 0.071 | 0.126 | 0.392 | 0.447 | 0.561 | 0.344 | 0.485
NCI-H520 | 0.586 | 0.505 | 0.56 | 0.786 | 0.235 | 0.91 | 0.935 | 0.975 | 0.986 | 1 | 0.27 | 0.21 | 0.263 | 0.243 | 0.197 | 0.245 | 0.225 | 0.247 | 0.292 | 0.215
NCI-H647 | 0.826 | 0.92 | 0.965 | 0.836 | 0.621 | 1.01 | 0.992 | 1.05 | 1.1 | 0.815 | 0.419 | 0.369 | 0.49 | 0.325 | 0.375 | 0.181 | 0.208 | 0.186 | 0.171 | 0.155
NCI-H650 | 0.76 | 0.72 | 1.09 | – | 0.857 | 0.659 | 0.739 | 1.13 | – | 1.06 | 0.33 | 0.332 | 0.331 | 0.318 | 0.318 | 0.516 | 0.429 | 0.482 | 0.313 | 0.415
NCI-H661 | 0.864 | 0.862 | 0.759 | 0.653 | 0.706 | 0.589 | 0.577 | 0.577 | 0.63 | 0.643 | 0.331 | 0.374 | 0.363 | 0.372 | 0.377 | 0.883 | 1.03 | 1.04 | 0.795 | 0.658
NCI-H727 | 0.547 | 0.774 | 0.834 | 0.549 | 0.446 | 0.283 | 0.283 | 0.268 | 0.199 | 0.343 | 0.599 | 0.692 | 0.668 | 0.621 | 0.618 | 0.332 | 0.315 | 0.346 | 0.383 | 0.35
NCI-H838 | 0.658 | 0.742 | 0.934 | 0.861 | 0.651 | 0.882 | 0.937 | 0.855 | 0.868 | 0.651 | 0.205 | 0.182 | 0.22 | 0.192 | 0.244 | 0.304 | 0.258 | 0.344 | 0.266 | 0.229
NCI-H1355 | 1.08 | 1.02 | 0.991 | 0.465 | 0.716 | 0.713 | 0.584 | 0.579 | 0.673 | 0.568 | 0.37 | 0.601 | 0.4 | 0.292 | 0.343 | 0.69 | 0.485 | 0.701 | 0.436 | 0.69
NCI-H1437 | 0.473 | 0.523 | 0.566 | 0.437 | 0.355 | 0.945 | 1.01 | 0.913 | 1 | 0.759 | 0.25 | 0.32 | 0.248 | 0.302 | 0.305 | 0.457 | 0.396 | 0.454 | 0.527 | 0.387
NCI-H1651 | 0.939 | 0.923 | 0.933 | 0.822 | 0.987 | 0.958 | 0.955 | 0.919 | 0.999 | 0.926 | 0.388 | 0.505 | 0.419 | 0.535 | 0.523 | 0.403 | 0.469 | 0.443 | 0.383 | 0.419
